# Experimental data taken from paper PMC6934184, “Selective DNA-PKcs inhibition extends the therapeutic index of localized radiotherapy and chemotherapy” (The Journal of Clinical Investigation, 2019).
# Biological target: T1, DDR2 T654M (Homo sapiens, UniProt Q16832, T654M)
# T1 construct: purchased Thermo Fisher Scientific (Life Technologies) SelectScreen
# Assay: SelectScreen LanthaScreen
# Type: binding
# Details: read-out: % displacement
# In short: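 NU5455 was profiled across the SelectScreen Broad panel of kinase activity and binding assays. Z'LYTE reactions such as CSF1R ran at apparent Km ATP, while the Adapta CAMK1 assay used ATP listed as 10. Values are given as percent.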
# T1 sequence (Q16832 22-855 T654M): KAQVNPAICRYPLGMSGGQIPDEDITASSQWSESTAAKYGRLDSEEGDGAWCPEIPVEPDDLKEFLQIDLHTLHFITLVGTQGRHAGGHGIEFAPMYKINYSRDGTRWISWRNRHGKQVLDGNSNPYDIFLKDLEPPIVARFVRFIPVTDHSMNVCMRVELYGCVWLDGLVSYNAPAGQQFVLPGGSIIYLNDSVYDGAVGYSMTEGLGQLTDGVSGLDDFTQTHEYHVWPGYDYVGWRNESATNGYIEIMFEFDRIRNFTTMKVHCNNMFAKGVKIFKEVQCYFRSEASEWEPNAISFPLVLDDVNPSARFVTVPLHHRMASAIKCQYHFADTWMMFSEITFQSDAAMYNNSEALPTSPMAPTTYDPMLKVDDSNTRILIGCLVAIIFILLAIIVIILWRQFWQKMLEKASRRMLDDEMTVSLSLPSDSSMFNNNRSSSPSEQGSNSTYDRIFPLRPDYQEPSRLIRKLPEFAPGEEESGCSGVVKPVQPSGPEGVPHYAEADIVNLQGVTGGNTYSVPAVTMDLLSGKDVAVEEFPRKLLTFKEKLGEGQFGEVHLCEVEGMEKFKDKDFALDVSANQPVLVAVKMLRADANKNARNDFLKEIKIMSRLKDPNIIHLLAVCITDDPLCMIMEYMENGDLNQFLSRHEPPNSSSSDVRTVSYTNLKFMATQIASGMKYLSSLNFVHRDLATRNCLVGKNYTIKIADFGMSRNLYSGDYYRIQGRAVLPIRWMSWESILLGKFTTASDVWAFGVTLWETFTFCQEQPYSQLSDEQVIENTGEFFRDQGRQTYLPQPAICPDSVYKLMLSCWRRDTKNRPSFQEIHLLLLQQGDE
smiles,measurement,value
CN(C(=O)CN1CCOCC1)c1ccc2sc3c(-c4cccc5c(=O)cc(N6CC7CCC(C6)O7)oc45)cccc3c2c1 [NU5455],inhibition at 1 µM,2.5%
